Laboratory results reported in US20250032580A1, “USE OF ADNF POLYPEPTIDES IN THERAPY” (RAMOT AT TEL-AVIV UNIVERSITY LTD., priority 2021, published 2025).

Legend:
Assay type in all cases: cell-based, mouse
[1] = tested on: differentiated N1E-115 cells; test: FRAP of mCherry-Tau (Tau-MT interaction)
Method: (§1) Cell culture—Mouse neuroblastoma NIE-115 cells were maintained in Dulbecco's modified Eagle's medium, 10% fetal bovine serum, 2 mM glutamine and 100 U ml—1 penicillin, […] ml—1 streptomycin (Biological Industries, Beit Haemek, Israel). The cells were incubated in 95% air/5% CO2 in a humidified incubator at 37° C.
(§2) Cell differentiation and co-transfection of overexpression plasmids—Cultured NIE-115 cells were plated on 35 mm dishes (81156, 60μ-Dish, Ibidi, Martinsried, Germany) at a concentration of 1.25×10^4 cells per dish and then were differentiated with reduced fetal bovine serum (2%) and DMSO (1.25%) containing medium for 5 days before transfection. 48 hrs before experiments N1E-115 cells were co-transfected with 1 μg EB3-RFP or mCherry-Tau (3R) plasmid with or without 2 μg of plasmids, coding to GFP conjugated to full-length human ADNP, or ADNP carried mutations. 1:3 ratios between total amount of transfected DNA and transfection reagent were used according to manufacture guidance (Lipofectamine2000, Thermo Fisher Scientific, Waltham, MA, USA) in all subsequent experiments.
Fluorescence recovery after photobleaching (FRAP)—Differentiated NIE-115 cells were transfected with mCherry-Tau with or without GFP-conjugated to full-length ADNP or mutated ADNP, and imaged 48 hrs after transfection. An ROI for photobleaching was drowned in the proximal cell branches. mCherry-Tau was bleached with a […], and fluorescence recovery was collected within wavelengths of 610-650 nm. 80 images were taken every 0.74 sec immediately after bleaching. After FRAP imaging all samples were also treated with NAP in final concentrations of 10^−12 M, and after 4 hrs time-lapse imaging was done again under the same conditions. FRAP imaging for assessment difference between NAP and SKIP (SEQ ID NO: 21) activity was performed after an hour of ZnCl2 treatment (400 μM final concentration; Sigma, Rehovot, Israel) with or without NAP/SKIP (10^−12 M final concentration). Fluorescence signals were quantified with Fiji, obtained data were normalized with easyFRAP [82, 83] and FRAP recovery curves were fitted by a one-phase exponential association function by GraphPad Prism6 (GraphPad Software, Inc., La Jolla, CA, USA) while samples with R^2<0.9 were excluded.
Next, the effect of full-length/truncated ADNP forms with or without NAP treatment on Tau-MT interaction was examined by fluorescence recovery after photobleaching (FRAP) (FIGS. 8A-C). FRAP was performed with mCherry-tagged Tau protein (FIG. 8A). […] Therefore, the immobile mCherry-Tau fraction reflects the rate of Tau association with MTs.

[2] = tested on: differentiated N1E-115 cells; test: Live imaging of EB3 comet-like structures (MT dynamics); settings: 10^−12 M, 4 hrs
Method: as §1, §2
Live Imaging—48 hrs after transfection, differentiated NIE-115 cells (expressing EB3-RFP with or without GFP-conjugated to full-length ADNP or mutated ADNP) were incubated at 37° C. with a 5% CO2/95% air mixture in a thermostatic chamber placed on the stage of a Leica TCS SP5 confocal microscope (objective 100× (PL Apo) oil immersion, NA 1.4). Time-lapse images were automatically captured 3 sec during 1 min, using the Leica LAS AF software. After imaging all samples were also treated with NAP (SEQ ID NO: 2) or SKIP (SEQ ID NO: 21) in final concentrations of 10^−12 M, and after 4 hrs time-lapse imaging was done again under the same conditions. Data was collected and analyzed by Imaris software.
To evaluate the effect of ADNP truncated proteins on MT dynamics time-lapse imaging of EB3 comet-like structures formed by RFP-tagged EB3 proteins that bind to MT plus-ends was performed. Two parameters of EB3 activity were used to assess MT dynamics—track length and track speed of EB3 comets, which reflect the length of freshly growing MTs and the speed of MT assembly, respectively. Furthermore, the present inventors aimed to determine whether NAP (10^−12 M for 4 hrs) could prevent the deleterious effect of ADNP mutations.

N1E-115 cells = test: Polymerized vs. soluble tubulin assay; settings: zinc 400 μM, 4 h, peptide 10^−12 M
Method: Polymerized vs. soluble tubulin assay—To quantify tubulin polymerization and Tau-MT association, a simple assay was performed as previously described. The cells grown to confluence in six-well plates were washed with MT buffer (80 mM PIPES pH 6.8, 1 mM MgCl^2, 2 mM EGTA, 5% Glycerol) and lysed at room temperature for 5 min through centrifugation (300 g), with 150 μl of MT buffer with 0.5% Triton X-100 to extract soluble (cytosolic) tubulin (S). The pelleted cells were rinsed once again with an equal volume of modified RIPA lysis buffer (50 mM Tris-HCL pH 7.4, 150 mM NaCl, 2 mM EGTA, 1% Triton X-100, 0.1% SDS, 0.1% sodium Deoxycholate) to collect the polymerized (cytoskeletal) tubulin (P). The cytosolic and cytoskeletal fractions were each mixed with sample buffer and heated at 95° C. for 5 min. An equal volume of each fraction was analyzed by immunoblotting with Tau, tubulin and actin antibodies, and the results following ECL development were quantified by densitometry (GelQuant.NET software provided by biochemlabsolutions(dot)com).
It is known that in the presence of extracellular zinc NAP protects MT against degradation by promoting Tau binding to the MT shaft. Polymerized vs. soluble tubulin assay was effected to compare protective activities of NAP and SKIP against MT degradation and Tau-MT dissociation (FIGS. 11F-G). After treatments with zinc (400 μM, 4 h) with and without NAP or SKIP (10^−12 M, 4 h) the cellular-tubulin pool was separated into polymerized and soluble tubulin fractions. The amount of Tau, tubulin, and actin was identified by immunoblotting (FIG. 11F), followed by densitometric quantification (FIG. 11G).

Molecule | Tau immobile fraction in comparison to non-treated control ([1]; 400 μM, 1 h) | Efficacy in terms of MT-Tau interactions, as compared with NAP ([1]; summary of results) | Tau immobile fraction under zinc ([1]; zinc 400 μM, 1 h, together with peptide 10^−12 M) | Difference between effects of NAP and SKIP on EB3 track length and speed [2] | EB3 track length and speed compared to non-treated control ([2]; no ADNP plasmid) | Protection against Tau dissociation from MTs (N1E-115 cells) | Protection of polymerized tubulin against zinc-induced decay (N1E-115 cells)
[Cl-].[Cl-].[Zn+2] [zinc, ZnCl2, reference compound] | significantly attenuated |  |  |  |  |  | 
SKIP |  | reduced efficacy | prevented zinc adverse effect | no significant differences | increased EB3 track length and speed | only NAP exhibited protection | protected against zinc-induced decay
